Results on three molecules are retold here after patent US20070077552A1, “High throughput screen for inhibitors of polypeptide aggregation” (priority 2005, published 2007).

The subject of assay [1] is Aβ. To be noted: cited from earlier work.
Assay [2] concerns the target Aβ42 (Homo sapiens, UniProt P05067). To be noted: shown previously (35, 36); cited from earlier work.
In assay [3] the target is T1, Aβ42-linker-GFP fusion protein (Homo sapiens, UniProt P05067).
T1 construct: Wild-type Aβ42-linker-GFP was expressed in the absence (gray) or presence (black) of 10 μM tannic acid; host or cells: cell-free E. coli T7 S30 extract system for circular DNA
The experiment in a line: Cell-free Aβ42-linker-GFP fluorescence assay. Format: biochemical. The settings on record: 10 μM, cell-free system. Here is the method:
In one embodiment, the assay uses a vector encoding Aβ42-linker-GFP in a cell-free in vitro transcription and translation system. For example, the basic protocol of the cell-free assay can involve the following steps: 1) Culture 500 ml to 1L of E. coli X1Blue strain harboring Aβ-linker-GFP fusion vector until the density of the suspension reaches O.D 0.9; 2) At O.D 0.9, spin down the cells at 4,000 g for 15 min; 3) Extract the vector using the Qiagen plasmid mega kit. (Cat. No. 12183); 4) After extraction, remove contaminants using phenol extraction; 5) Add E. coli T7 S30 extract system for circular DNA (Promega, Cat. No. L1130) into each well of a 96-well plate; 6) Add control or test substances (e.g. putative drug molecules or vectors that express inhibitory polypeptide) to each well; 7) Add Aβ-linker-GFP fusion vector, and express at RT or at 37 ° C. for 3 hrs; and 8) Measure the fluorescence emission at 510 nm (using an excitation at 490 nm). One of skill in the art will recognize that other transcription/translation systems, or a modified system, can be used. Likewise, the details of the protocol can be varied and optimized to accommodate other amyloidogenic proteins, to enhance the relative fluorescence, to accommodate the needs of the assayist, or a combination thereof.
FIG. 8 illustrates the inhibition of fluorescence of Aβ42-linker-GFP in a cell free system. […]

Chain of Aβ42 (P05067 672-713 limits assumed, species assumed): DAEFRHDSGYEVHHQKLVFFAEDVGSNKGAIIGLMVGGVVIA
T1 sequence (P05067 with tags, fused parts or gaps): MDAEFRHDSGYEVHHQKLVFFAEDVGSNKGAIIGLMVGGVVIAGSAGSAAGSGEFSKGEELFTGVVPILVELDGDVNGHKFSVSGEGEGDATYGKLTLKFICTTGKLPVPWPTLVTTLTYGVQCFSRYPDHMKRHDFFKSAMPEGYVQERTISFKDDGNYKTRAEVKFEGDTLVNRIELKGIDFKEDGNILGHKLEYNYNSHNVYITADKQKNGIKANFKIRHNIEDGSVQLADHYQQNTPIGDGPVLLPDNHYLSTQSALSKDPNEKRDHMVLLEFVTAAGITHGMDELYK

Regarding `CCc1nc(Nc2cccc(O)c2)nc(Nc2cccc(O)c2)n1` [RS-0466], in assay [1], the Aβ oligomerization result is recorded as “block Aβ oligomerization” and the long-term potentiation result is listed as “rescue long-term potentiation”.

On to `NCCc1ccc(O)c(O)c1` [dopamine], for which the “inhibition of Aβ42 aggregation” value in assay [2] was “inhibit A42 aggregation”.

Take `O=C(OC[C@H]1O[C@@H](OC(=O)c2cc(O)c(O)c(OC(=O)c3cc(O)c(O)c(O)c3)c2)[C@H](OC(=O)c2cc(O)c(O)c(OC(=O)c3cc(O)c(O)c(O)c3)c2)[C@@H](OC(=O)c2cc(O)c(O)c(OC(=O)c3cc(O)c(O)c(O)c3)c2)[C@@H]1OC(=O)c1cc(O)c(O)c(OC(=O)c2cc(O)c(O)c(O)c2)c1)c1cc(O)c(O)c(OC(=O)c2cc(O)c(O)c(O)c2)c1` [tannic acid]: the “inhibition of Aβ42 aggregation” value in assay [2] was “inhibit A42 aggregation”. Also, the “fluorescence of wild-type Aβ42-linker-GFP / inhibition of aggregation” value in assay [3] is “partially inhibits aggregation”.
